Measured values taken from patent publication US20250144067A1, “PERSONALIZED STARVATION THERAPY FOR CANCER” (Faeth Therapeutics, Inc., priority 2021, published 2025).
Counter-ions that a name gives are not always drawn. Like-named read-outs stand apart in the source and are kept apart here.

Columns and labels:
[1] = tested on: NCI-H292 lung cancer cells; assay: FDA drug screening, complete media vs cholesterol-free media without statin (TABLE 1); format: cell-based, human
[2] = tested on: NCI-H292 lung cancer cells; assay: FDA drug screening, complete media vs cholesterol-free media with simvastatin (TABLE 2); format: cell-based, human
[3] = Complete minus Cholesterol-free, […]
[4] = NCI-H292 cells, FDA drug library screen, cholesterol-free media with simvastatin 0.04 μM
[5] = NCI-H292 cells, FDA drug library screen, complete media
[6] = NCI-H292 cells, cholesterol-free media without statin
[7] = NCI-H292 cells, cholesterol-free media with simvastatin 0.04 μM, FDA drug library screen (TABLE 2)
[8] = NCI-H292 cells, complete media, FDA drug library screen (TABLE 2)
[9] = Complete minus Cholesterol-free, >0 enhanced anti-cancer activity, about 0 neutral, <0 antagonist
[10] = NCI-H292 cells, FDA library drug in cholesterol-free media with simvastatin 0.04 μM
[11] = NCI-H292 cells, FDA library drug in complete media
[12] = complete media vs cholesterol-free media + simvastatin (0.04 μM), >0 enhanced anti-cancer activity, about 0 neutral, <0 antagonist
[13] = Complete minus Cholesterol-free, greater than 0 enhanced anti-cancer activity, about 0 neutral, below 0 antagonist
[14] = NCI-H292 cells, FDA drug library screen, cholesterol-free media without statin
[15] = complete media minus cholesterol-free media + simvastatin, >0 enhanced anti-cancer activity, about 0 neutral, <0 antagonist
[16] = complete media minus cholesterol-free media + simvastatin (0.04 μM), >0 enhanced anti-cancer activity, about 0 neutral, <0 antagonist
[17] = NCI-H292 cells, cholesterol-free media without statin, FDA drug library screen
[18] = NCI-H292 cells, complete media, FDA drug library screen
[19] = complete vs cholesterol-free media, >0 enhanced anti-cancer activity, about 0 neutral, <0 antagonist

Compound: CNC(=O)CN(CCN(CCN(CC(=O)[O-])CC(=O)NC)CC(=O)[O-])CC(=O)[O-].O.[Gd+3] [Gadodiamide (hydrate)]
- Difference [1, 3]: −0.65
- Cholesterol-free ([1]; NCI-H292 cells in cholesterol-free media without statin): 1.387
- Complete ([1]; NCI-H292 cells in complete media): 0.7342
- Cholesterol-free media + simvastatin (0.04 μM) [2, 4]: 1.113
- Complete Media [2, 5]: 0.9905
- Difference ([2]; complete media vs cholesterol-free media + simvastatin (0.04 μM), […]): −0.12

Compound: COc1ccc2c3c1O[C@H]1C[C@@H](O)C=C[C@@]31CCN(C)C2 [Galanthamine (hydrobromide)]
- Difference [1, 3]: −0.25
- Cholesterol-free [1, 6]: 1.284
- Complete ([1]; NCI-H292 cells, complete media): 1.033
- Cholesterol-free media + simvastatin (0.04 μM) ([2]; NCI-H292 cells, cholesterol-free media with simvastatin 0.04 μM, […]): 1.411
- Complete Media ([2]; NCI-H292 cells, complete media, […]): 1.432
- Difference ([2]; complete media minus cholesterol-free media + simvastatin, […]): 0.02

Compound: COc1ccc2c3c1O[C@H]1C[C@@H](O)C=C[C@@]31CCN(C)C2 [Galanthamine]
- Cholesterol-free [1, 6]: 1.164
- Complete ([1]; NCI-H292 cells, complete media): 0.829
- Difference ([1]; complete vs cholesterol-free media, […]): −0.33
- Cholesterol-free media + simvastatin (0.04 μM) [2, 7]: 1.051
- Complete Media [2, 8]: 1.046
- Difference ([2]; complete media minus cholesterol-free media + simvastatin (0.04 μM), […]): −0.01

Compound: CC[N+](CC)(CC)CCOc1cccc(OCC[N+](CC)(CC)CC)c1OCC[N+](CC)(CC)CC [Gallamine Triethiodide]
- Difference [1, 9]: −0.28
- Cholesterol-free [1, 6]: 1.311
- Complete ([1]; NCI-H292 cells, complete media): 1.029
- Cholesterol-free media + simvastatin (0.04 μM) [2, 10]: 1.372
- Complete Media [2, 11]: 1.027
- Difference [2, 12]: −0.35

Compound: O=C(O)c1cc(O)c(O)c(O)c1 [Gallic acid]
- Difference [1, 13]: −0.08
- Cholesterol-free [1, 14]: 1.301
- Complete [1, 5]: 1.222
- Cholesterol-free media + simvastatin (0.04 μM) [2, 10]: 2.089
- Complete Media [2, 11]: 1.613
- Difference [2, 12]: −0.48

Compound: CCCN1C[C@H](C)[C@@H](O)[C@](C)(O)[C@@H](CC)OC(=O)[C@H](C)[C@@H](O[C@H]2C[C@@](C)(OC)[C@@H](O)[C@H](C)O2)[C@H](C)[C@@H](O[C@@H]2O[C@H](C)C[C@H](N(C)C)[C@H]2O)[C@](C)(O)C[C@H]1C [Gamithromycin]
- Cholesterol-free [1, 6]: 1.35
- Complete ([1]; NCI-H292 cells, complete media): 0.886
- Difference ([1]; complete vs cholesterol-free media, greater than 0 enhanced anti-cancer activity, about 0 neutral, below 0 antagonists): −0.46
- Cholesterol-free media + simvastatin (0.04 μM) [2, 4]: 1.403
- Complete Media [2, 5]: 1.765
- Difference [2, 15]: 0.36

Compound: Nc1nc(O)c2ncn(COC(CO)CO)c2n1 [Ganciclovir (sodium)]
- Difference [1, 9]: −0.19
- Cholesterol-free [1, 6]: 0.9099
- Complete ([1]; NCI-H292 cells, complete media): 0.7218
- Cholesterol-free media + simvastatin (0.04 μM) [2, 7]: 1.423
- Complete Media [2, 8]: 1.395
- Difference [2, 16]: −0.03

Compound: Nc1nc(O)c2ncn(COC(CO)CO)c2n1 [Ganciclovir]
- Difference [1, 9]: 0.07
- Cholesterol-free [1, 17]: 0.8931
- Complete [1, 18]: 0.9638
- Cholesterol-free media + simvastatin (0.04 μM) [2, 7]: 0.88
- Complete Media [2, 8]: 0.8599
- Difference [2, 16]: −0.02

Compound: OCc1ccc(O[C@@H]2O[C@H](CO)[C@@H](O)[C@H](O)[C@H]2O)cc1 [Gastrodin]
- Cholesterol-free [1]: 1.466
- Complete [1]: 1.162
- Difference [1]: −0.30
- Cholesterol-free media + simvastatin (0.04 μM) [2]: 1.131
- Complete Media [2]: 1.355
- Difference [2]: 0.22

Compound: COc1c(N2CCNC(C)C2)c(F)cc2c(=O)c(C(=O)O)cn(C3CC3)c12 (stereo not drawn) [Gatifloxacin (hydrochloride)]
- Difference [1, 13]: −0.09
- Cholesterol-free [1, 14]: 1.038
- Complete [1, 5]: 0.9512
- Cholesterol-free media + simvastatin (0.04 μM) [2, 4]: 0.9302
- Complete Media [2, 5]: 0.7736
- Difference [2, 12]: −0.16

Compound: COc1c(N2CCNC(C)C2)c(F)cc2c(=O)c(C(=O)O)cn(C3CC3)c12 (stereo not drawn) [Gatifloxacin]
- Cholesterol-free [1, 17]: 1.137
- Complete [1, 18]: 1.266
- Difference [1, 19]: 0.13
- Cholesterol-free media + simvastatin (0.04 μM) ([2]; NCI-H292 cells, cholesterol-free media with simvastatin 0.04 μM, cell growth value in FDA drug screen): 0.9418
- Complete Media ([2]; NCI-H292 cells, complete media, cell growth value in FDA drug screen): 1.02
- Difference [2, 15]: 0.08

Compound: CC(C)=CCC/C(C)=C/CC/C(C)=C/CCC(=O)OC/C=C(\C)CCC=C(C)C [Gefarnate]
- Cholesterol-free [1]: 1.413
- Complete [1]: 0.9135
- Difference [1]: −0.50
- Cholesterol-free media + simvastatin (0.04 μM) [2]: 1.714
- Complete Media [2]: 1.906
- Difference [2]: 0.19

Compound: COc1cc2ncnc(Nc3ccc(F)c(Cl)c3)c2cc1OCCCN1CCOCC1 [Gefitinib (hydrochloride)]
- Cholesterol-free [1, 17]: 0.6497
- Complete [1, 18]: 0.8718
- Difference [1, 19]: 0.22
- Cholesterol-free media + simvastatin (0.04 μM) [2, 4]: 0.9234
- Complete Media [2, 5]: 0.8455
- Difference [2, 12]: −0.08
